In US4560509A, “Antibiotic A39079 factor S-1” (Eli Lilly and Company, priority 1983, dated 1985):
Values after ≈ are worked out from the molar mass of the structure shown.

Assays:
Experiment in all cases: standard agar-dilution MIC assay
Assay type in all cases: cell-based
[1] = system: Enterobacter cloacae 265A; conditions: agar dilution; Enterobacter cloacae 265A; read-out: MIC
Description: (§1) Table V summarizes the minimal inhibitory concentrations (MIC) at which factor S-1 inhibits certain organisms as determined by standard agar-dilution assays. In Table V, the activity of factor S-1 is compared with that of rifampin.

[2] = system: Shigella sonnei N9
Description: as §1

[3] = system: Klebsiella pneumoniae KAE; conditions: agar dilution; Klebsiella pneumoniae KAE; read-out: MIC
Description: as §1

[4] = system: Pseudomonas aeruginosa Ps72
Description: as §1

[5] = system: Citrobacter freundii CF17; conditions: agar dilution; Citrobacter freundii CF17; read-out: MIC
Description: as §1

[6] = system: Klebsiella pneumoniae X68; conditions: agar dilution; Klebsiella pneumoniae X68; read-out: MIC
Description: as §1

[7] = system: Salmonella typhi 1335; conditions: Salmonella enterica
Description: as §1

[8] = system: Pseudomonas aeruginosa X528; conditions: agar dilution; Pseudomonas aeruginosa X528; read-out: MIC
Description: as §1

[9] = system: Staphylococcus epidermidis EPI1
Description: as §1

[10] = system: Klebsiella pneumoniae X26; conditions: agar dilution; Klebsiella pneumoniae X26; read-out: MIC
Description: as §1

[11] = system: Staphylococcus aureus X400; conditions: agar dilution; Staphylococcus aureus X400; read-out: MIC
Description: as §1

[12] = system: Acinetobacter calcoaceticus AC12
Description: as §1

[13] = system: Streptococcus pneumoniae Park 1; conditions: PARK1; agar dilution; Streptococcus pneumoniae Park 1; read-out: MIC
Description: as §1

[14] = system: Serratia marcescens X99; conditions: agar dilution; Serratia marcescens X99; read-out: MIC
Description: as §1

[15] = system: Proteus rettgeri C24; conditions: Providencia rettgeri; agar dilution; Proteus rettgeri C24; read-out: MIC
Description: as §1

[16] = system: Enterobacter cloacae EB5; conditions: agar dilution; Enterobacter cloacae EB5; read-out: MIC
Description: as §1

[17] = system: Haemophilus influenzae C.L.
Description: as §1

[18] = system: Pseudomonas aeruginosa Ps18
Description: as §1

[19] = system: Escherichia coli N10
Description: as §1

[20] = system: Enterobacter aerogenes EB17; conditions: Klebsiella aerogenes; agar dilution; Enterobacter aerogenes EB17; read-out: MIC
Description: as §1

[21] = system: Proteus inconstans PR33; conditions: Providencia alcalifaciens; agar dilution; Proteus inconstans PR33; read-out: MIC
Description: as §1

[22] = system: Salmonella typhi X514; conditions: Salmonella enterica
Description: as §1

[23] = system: Serratia marcescens SE3; conditions: agar dilution; Serratia marcescens SE3; read-out: MIC
Description: as §1

Question: For `CC(=O)OC1C(C)C(O)C=COC2(C)Oc3c(C)c(O)c4c(c3C2=O)C(=O)C(C)=C(NC(=O)C=CC=CC(C)C(O)C(C)C(O)C1C)C4=O` (centres unmarked) [Factor S-1], which MIC [1] is on record?
Answer: 32 µg/mL (≈ 46.9 µM)

Question: What about the MIC [2] of the same compound?
Answer: 8 µg/mL (≈ 11.7 µM)

Question: And the MIC [3]?
Answer: 16 µg/mL (≈ 23.5 µM)

Question: What about the MIC [4] of the same compound?
Answer: 16 µg/mL (≈ 23.5 µM)

Question: What about the MIC [5] of the same compound?
Answer: 16 µg/mL (≈ 23.5 µM)

Question: What about the MIC [6] of the same compound?
Answer: 16 µg/mL (≈ 23.5 µM)

Question: What about the MIC [7] of the same compound?
Answer: 32 µg/mL (≈ 46.9 µM)

Question: And the MIC [8]?
Answer: 16 µg/mL (≈ 23.5 µM)

Question: What about the MIC [9] of the same compound?
Answer: < 0.008 µg/mL

Question: What about the MIC [10] of the same compound?
Answer: 32 µg/mL (≈ 46.9 µM)

Question: What about the MIC [11] of the same compound?
Answer: 0.06 µg/mL (≈ 0.088 µM)

Question: And the MIC [12]?
Answer: 2 µg/mL (≈ 2.93 µM)

Question: What about the MIC [13] of the same compound?
Answer: < 0.008 µg/mL

Question: And the MIC [14]?
Answer: 32 µg/mL (≈ 46.9 µM)

Question: What about the MIC [15] of the same compound?
Answer: 2 µg/mL (≈ 2.93 µM)

Question: And the MIC [16]?
Answer: 32 µg/mL (≈ 46.9 µM)

Question: What about the MIC [17] of the same compound?
Answer: 0.25 µg/mL (≈ 0.367 µM)

Question: And the MIC [18]?
Answer: > 128 µg/mL

Question: What about the MIC [19] of the same compound?
Answer: 8 µg/mL (≈ 11.7 µM)

Question: And the MIC [20]?
Answer: 32 µg/mL (≈ 46.9 µM)

Question: And the MIC [21]?
Answer: 8 µg/mL (≈ 11.7 µM)

Question: What about the MIC [22] of the same compound?
Answer: 32 µg/mL (≈ 46.9 µM)

Question: And the MIC [23]?
Answer: 16 µg/mL (≈ 23.5 µM)
